The values below come from ChEMBL document CHEMBL1148245 (Bioorg Med Chem Lett, 2004).

Series [1] deals with T1, 5-hydroxytryptamine receptor 1A (Homo sapiens, UniProt P08908).
T1 sequence (P08908 whole entry): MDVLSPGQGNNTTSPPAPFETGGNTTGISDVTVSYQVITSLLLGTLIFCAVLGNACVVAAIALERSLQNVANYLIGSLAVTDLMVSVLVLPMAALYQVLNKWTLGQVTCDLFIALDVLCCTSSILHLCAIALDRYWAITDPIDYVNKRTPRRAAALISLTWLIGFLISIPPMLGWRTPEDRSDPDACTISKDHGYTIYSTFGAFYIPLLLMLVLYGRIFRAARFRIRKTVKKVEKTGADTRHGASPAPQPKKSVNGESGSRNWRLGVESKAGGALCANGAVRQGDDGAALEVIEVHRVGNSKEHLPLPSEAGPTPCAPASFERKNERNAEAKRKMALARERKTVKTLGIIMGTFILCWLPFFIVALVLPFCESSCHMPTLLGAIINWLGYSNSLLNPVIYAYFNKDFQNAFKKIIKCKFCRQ
Briefly: In vitro binding affinity against 5-hydroxytryptamine 1A receptor using [3H]8-OH-DPAT in human CYP3A4 assay.

A further series has as its system CYP3A4. The series can be described thus: CYP3A4 metabolism half-life (t1/2). The conditions noted are these: human.

A word on the IC50: it is the concentration that gives 50% inhibition. Read a low IC50 as inhibition by little substance. By half-life is commonly meant how long it takes for the measured level to halve. A higher half-life goes with slow loss. The molecule `COc1ccccc1N1CCN(CCCCN2C(=O)CC3(CCCC3)CC2=O)CC1` returned an IC50 in series [1] of 0.002 µM. Further, the half-life in the series with CYP3A4 turned out to be 5.1 min.

`O=C1c2ccccc2C(=O)N1CCCCN1CCN(c2ncccn2)CC1` gave an IC50 in series [1] of 0.06 µM. The same molecule showed a half-life in the series on CYP3A4 of 26.8 min.

For `O=C1CC2(CCCC2)CC(=O)N1CCCCN1CCN(c2ccccc2)CC1`, the IC50 in series [1] is 0.015 µM. The half-life with CYP3A4 was found to be 8 min. The corresponding values for `CC(CCCN1C(=O)CC2(CCCC2)CC1=O)N1CCN(c2ncccn2)CC1` (stereo unspecified) are 0.004 µM and 3.8 min. `O=C1CC2(CCCC2)CC(=O)N1CCC(O)CN1CCN(c2ncccn2)CC1` (stereo unspecified) had a half-inhibitory concentration (IC50) in series [1] of 0.84 µM. In the series with CYP3A4, this molecule came in with a half-life of 10.2 min. The corresponding values for `O=C1CC2(CCCC2)CC(=O)N1CCC(O)CN1CCN(c2cnccn2)CC1` (stereo unspecified) are over 1 µM and 9.6 min. Taken in the same sequence, the figures for `COc1ccc(N2CCN(CCCCN3C(=O)CC4(CCCC4)CC3=O)CC2)cc1` were 0.93 µM and 21.1 min. Taken in the same sequence, the figures for `O=C1CC2(CCCC2)CC(=O)N1CCCCN1CCN(c2ncc(F)cn2)CC1` were 0.063 µM and 52.3 min. In series [1], `CC(C)(CCN1C(=O)CC2(CCCC2)CC1=O)CN1CCN(c2ncccn2)CC1` registered an IC50 of 0.71 µM. In the series on CYP3A4, this molecule had a half-life of 2.9 min.

The molecule `O=C1CC2(CCCC2)CC(=O)N1CCCCN1CCN(c2cnccn2)CC1` gave an IC50 in series [1] of 0.46 µM. Further, in the series with CYP3A4, the half-life amounted to 5.5 min. `CC(CCCN1C(=O)CC2(CCCC2)CC1=O)N1CCN(c2ncc(F)cn2)CC1` (stereo unspecified): the IC50 in series [1] worked out at 0.046 µM. The molecule further displayed a half-life in the series with CYP3A4 of 14.8 min. Turning to `O=C1CC2(CCCC2)CC(=O)N1CCC(O)CN1CCN(c2ccc(F)cc2)CC1` (stereo unspecified), the IC50 in series [1] worked out at 0.069 µM. Further, the half-life with CYP3A4 came out at 3.8 min. Taken in the same sequence, the figures for `CC(CCCN1C(=O)CC2(CCCC2)CC1=O)N1CCN(c2ccc(F)cc2)CC1` (stereo unspecified) were 0.099 µM and 2.4 min. In series [1], `COc1ccccc1N1CCN(CC(O)CCN2C(=O)CC3(CCCC3)CC2=O)CC1` (stereo unspecified) gave a 50% inhibitory concentration (IC50) of 0.012 µM. In the series with CYP3A4, this molecule returned a half-life of 7.8 min. Taken in the same sequence, the figures for `O=C1c2ccccc2C(=O)N1CCCCN1CCN(c2ncc(F)cn2)CC1` were 0.44 µM and 20.4 min. Taken in the same sequence, the figures for `O=C1CC2(CCCC2)CC(=O)N1CCCCN1CCN(c2ccc(F)cc2)CC1` were 0.064 µM and 3.2 min. Taken in the same sequence, the figures for `CC(CCCN1C(=O)c2ccccc2C1=O)N1CCN(c2ncc(F)cn2)CC1` (stereo unspecified) were 0.21 µM and 18.2 min. In series [1], `CC1(C)CC(=O)N(CCCCN2CCN(c3ncc(F)cn3)CC2)C(=O)C1` registered an IC50 of 0.205 µM. Also, the half-life in the series on CYP3A4 worked out at 78.3 min.

On to `CC(CCCN1C(=O)CC(C)(C)CC1=O)N1CCN(c2ncc(F)cn2)CC1` (stereo unspecified), for which, in series [1], the IC50 was found to be 0.087 µM. The half-life in the series on CYP3A4 was found to be 40.1 min.

With `CC(O)(CCN1C(=O)CC2(CCCC2)CC1=O)CN1CCN(c2ncccn2)CC1` (stereo unspecified), the IC50 in series [1] was 1.46 µM. This molecule also displayed a half-life with CYP3A4 of 8.6 min. As to `CC1(C)CC(=O)N(CCCCN2CCN(c3ncccn3)CC2)C(=O)C1` [GEPIRONE], the half-life in the series with CYP3A4 is 30.3 min.
